Several values for one entry are separate records, joined by “and”; a condition that tells them apart may be missing. Identical values can stand only once.
Experiments:
Test in all cases: PDSP GPCR panel primary binding assays at 10 μM
Details in all cases: primary assay
[1] = target: T1, cloned human or rodent CNS receptors, channels, and transporters (PDSP panel) (Homo sapiens, UniProt P46098)
T1 construct: expressed in transfected cells
T1 sequence (P46098 24-478): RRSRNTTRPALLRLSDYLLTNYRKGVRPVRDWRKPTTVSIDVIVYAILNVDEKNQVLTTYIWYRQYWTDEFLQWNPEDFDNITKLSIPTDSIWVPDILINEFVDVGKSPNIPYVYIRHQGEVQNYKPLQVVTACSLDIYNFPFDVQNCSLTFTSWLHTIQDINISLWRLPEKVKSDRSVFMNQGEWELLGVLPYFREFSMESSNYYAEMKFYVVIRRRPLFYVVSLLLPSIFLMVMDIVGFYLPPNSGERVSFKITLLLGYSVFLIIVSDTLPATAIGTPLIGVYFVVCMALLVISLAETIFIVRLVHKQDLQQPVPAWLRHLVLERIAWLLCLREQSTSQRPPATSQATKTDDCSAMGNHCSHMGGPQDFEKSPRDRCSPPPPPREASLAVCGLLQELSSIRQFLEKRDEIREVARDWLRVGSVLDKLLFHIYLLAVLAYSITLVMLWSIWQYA
Procedure, shortened: (§1)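 Competition binding with radiolabeled standard ligands, single 10 μM concentration, four replicates. Targets showing over 50% displacement were followed up with 11-point titrations in triplicate.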

[2] = target: T2, cloned human or rodent CNS receptors, channels, and transporters (PDSP panel) (Homo sapiens, UniProt P28335)
T2 construct: expressed in transfected cells
T2 sequence (P28335 33-458): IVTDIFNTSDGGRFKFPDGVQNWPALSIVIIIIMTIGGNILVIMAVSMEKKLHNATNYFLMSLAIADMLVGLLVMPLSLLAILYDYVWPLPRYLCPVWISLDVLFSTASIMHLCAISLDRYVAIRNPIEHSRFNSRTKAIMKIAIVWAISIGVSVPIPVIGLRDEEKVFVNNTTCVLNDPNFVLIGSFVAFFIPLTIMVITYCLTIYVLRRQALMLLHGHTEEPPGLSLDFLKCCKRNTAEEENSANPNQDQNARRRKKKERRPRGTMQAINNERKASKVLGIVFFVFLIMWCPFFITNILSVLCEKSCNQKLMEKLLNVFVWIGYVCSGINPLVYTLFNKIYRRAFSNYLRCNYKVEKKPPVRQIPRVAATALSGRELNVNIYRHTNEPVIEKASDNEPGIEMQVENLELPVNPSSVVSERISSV
Procedure, shortened: as §1

[3] = target: T3, cloned human or rodent CNS receptors, channels, and transporters (PDSP panel) (Homo sapiens, UniProt P25100)
T3 construct: expressed in transfected cells
T3 sequence (P25100 1-572): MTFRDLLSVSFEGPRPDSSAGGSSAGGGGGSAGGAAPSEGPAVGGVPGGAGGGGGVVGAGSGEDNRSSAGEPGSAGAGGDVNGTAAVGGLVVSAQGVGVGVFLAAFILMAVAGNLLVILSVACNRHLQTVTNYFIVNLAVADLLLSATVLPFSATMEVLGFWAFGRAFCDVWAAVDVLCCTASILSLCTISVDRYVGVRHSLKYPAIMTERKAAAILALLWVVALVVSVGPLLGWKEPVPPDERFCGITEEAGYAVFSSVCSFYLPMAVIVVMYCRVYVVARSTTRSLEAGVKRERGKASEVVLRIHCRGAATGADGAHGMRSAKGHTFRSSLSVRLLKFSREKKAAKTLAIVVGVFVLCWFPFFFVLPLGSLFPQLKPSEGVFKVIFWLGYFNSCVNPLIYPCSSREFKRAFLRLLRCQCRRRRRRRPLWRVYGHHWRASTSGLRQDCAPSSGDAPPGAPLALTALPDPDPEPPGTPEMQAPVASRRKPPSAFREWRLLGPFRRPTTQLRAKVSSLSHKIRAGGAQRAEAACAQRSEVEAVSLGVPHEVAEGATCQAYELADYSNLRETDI
Procedure, shortened: as §1

[4] = target: T4, cloned human or rodent CNS receptors, channels, and transporters (PDSP panel) (Homo sapiens, UniProt P31645)
T4 construct: expressed in transfected cells
Procedure, shortened: as §1

[5] = target: T5, cloned human or rodent CNS receptors, channels, and transporters (PDSP panel) (Homo sapiens, UniProt P08173)
T5 construct: expressed in transfected cells
T5 sequence (P08173 1-479): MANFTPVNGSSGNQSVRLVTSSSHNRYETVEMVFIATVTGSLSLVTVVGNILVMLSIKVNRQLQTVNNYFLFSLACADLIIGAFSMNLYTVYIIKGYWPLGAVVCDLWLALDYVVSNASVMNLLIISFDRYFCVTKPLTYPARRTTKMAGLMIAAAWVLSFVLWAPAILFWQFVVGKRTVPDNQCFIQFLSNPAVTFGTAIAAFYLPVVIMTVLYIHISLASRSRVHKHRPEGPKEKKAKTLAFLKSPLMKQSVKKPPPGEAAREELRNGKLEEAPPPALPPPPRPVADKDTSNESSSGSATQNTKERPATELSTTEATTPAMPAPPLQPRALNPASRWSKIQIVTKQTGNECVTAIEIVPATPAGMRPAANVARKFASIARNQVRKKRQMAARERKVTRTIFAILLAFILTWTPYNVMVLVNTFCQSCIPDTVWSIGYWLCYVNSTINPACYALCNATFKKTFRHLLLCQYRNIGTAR
Procedure, shortened: as §1

[6] = target: T6, cloned human or rodent CNS receptors, channels, and transporters (PDSP panel) (Homo sapiens, UniProt Q01959)
T6 construct: expressed in transfected cells
Procedure, shortened: as §1

[7] = Receptor 5-HT3, 10 μM, mean of Inhibition 1-4
[8] = Receptor 5-HT2C, 10 μM, mean of Inhibition 1-4
[9] = Receptor Alpha1D, 10 μM, mean of Inhibition 1-4
[10] = Receptor SERT, 10 μM, mean of Inhibition 1-4
[11] = Receptor M4, 10 μM, mean of Inhibition 1-4
[12] = Receptor DAT, 10 μM, mean of Inhibition 1-4

T6 sequence (Q01959 whole entry): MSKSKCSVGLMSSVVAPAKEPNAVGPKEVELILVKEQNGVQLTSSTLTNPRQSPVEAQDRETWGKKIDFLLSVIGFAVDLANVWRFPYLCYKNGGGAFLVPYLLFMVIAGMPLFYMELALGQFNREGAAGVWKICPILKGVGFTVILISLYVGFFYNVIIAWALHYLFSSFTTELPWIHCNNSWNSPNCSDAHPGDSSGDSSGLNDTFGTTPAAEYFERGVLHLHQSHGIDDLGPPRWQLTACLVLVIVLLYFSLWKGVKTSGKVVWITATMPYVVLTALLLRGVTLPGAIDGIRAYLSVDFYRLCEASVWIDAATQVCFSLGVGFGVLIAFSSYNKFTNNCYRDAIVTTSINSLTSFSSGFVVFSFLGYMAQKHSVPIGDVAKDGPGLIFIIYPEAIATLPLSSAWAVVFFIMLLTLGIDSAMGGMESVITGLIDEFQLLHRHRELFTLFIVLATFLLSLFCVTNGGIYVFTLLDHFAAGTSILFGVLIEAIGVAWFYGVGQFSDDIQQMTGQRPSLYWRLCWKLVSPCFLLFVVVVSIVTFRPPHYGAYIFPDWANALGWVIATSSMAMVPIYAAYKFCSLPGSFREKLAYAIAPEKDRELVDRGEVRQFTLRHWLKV
T4 sequence (P31645 whole entry): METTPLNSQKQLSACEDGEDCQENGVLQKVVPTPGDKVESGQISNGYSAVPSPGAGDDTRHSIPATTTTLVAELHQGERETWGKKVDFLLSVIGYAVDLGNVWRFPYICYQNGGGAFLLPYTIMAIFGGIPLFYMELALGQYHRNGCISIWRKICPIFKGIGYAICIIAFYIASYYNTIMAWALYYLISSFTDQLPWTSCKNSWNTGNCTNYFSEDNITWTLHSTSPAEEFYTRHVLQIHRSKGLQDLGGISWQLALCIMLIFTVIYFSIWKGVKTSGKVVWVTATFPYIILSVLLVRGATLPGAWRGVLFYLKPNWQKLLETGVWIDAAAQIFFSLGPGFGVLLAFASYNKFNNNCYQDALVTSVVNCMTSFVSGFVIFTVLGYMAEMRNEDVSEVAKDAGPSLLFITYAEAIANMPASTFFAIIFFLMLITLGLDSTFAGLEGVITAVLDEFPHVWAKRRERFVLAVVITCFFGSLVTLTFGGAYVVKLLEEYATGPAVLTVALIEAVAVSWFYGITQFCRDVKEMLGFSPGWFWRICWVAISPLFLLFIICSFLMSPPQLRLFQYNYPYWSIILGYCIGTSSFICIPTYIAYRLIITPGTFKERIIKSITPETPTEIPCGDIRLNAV

CCCCNc1ncc2c(-c3ccc(CN4CCN(C)CC4)cc3)cn([C@H]3CC[C@H](O)CC3)c2n1 [UNC2025C, UNC2025]
Inhibition 1 ([1]; Receptor 5-HT3, 10 μM): 11.35%
Inhibition 2 ([1]; Receptor 5-HT3, 10 μM): 35.98%
Inhibition 3 ([1]; Receptor 5-HT3, 10 μM): 21.68%
Inhibition 4 ([1]; Receptor 5-HT3, 10 μM): 26.58%
Mean % [1, 7]: 23.9%
Inhibition 1 ([2]; Receptor 5-HT2C, 10 μM): 29.45%
Inhibition 2 ([2]; Receptor 5-HT2C, 10 μM): 46.13%
Inhibition 3 ([2]; Receptor 5-HT2C, 10 μM): 31.41%
Inhibition 4 ([2]; Receptor 5-HT2C, 10 μM): 26.99%
Mean % [2, 8]: 33.5%
Inhibition 1 ([3]; Receptor Alpha1D, 10 μM): 50.98%
Inhibition 2 ([3]; Receptor Alpha1D, 10 μM): 57.37%
Inhibition 3 ([3]; Receptor Alpha1D, 10 μM): 48.7%
Inhibition 4 ([3]; Receptor Alpha1D, 10 μM): 44.3%
Mean % [3, 9]: 50.34%
Inhibition 1 ([4]; Receptor SERT, 10 μM): 82.19% and 71%
Inhibition 2 ([4]; Receptor SERT, 10 μM): 70.62% and 68.78%
Inhibition 3 ([4]; Receptor SERT, 10 μM): 68.77% and 67.79%
Inhibition 4 ([4]; Receptor SERT, 10 μM): 72.64% and 73.98%
Mean % [4, 10]: 73.56% and 70.39%
Inhibition 1 ([5]; Receptor M4, 10 μM): 21.02%
Inhibition 2 ([5]; Receptor M4, 10 μM): 3.79%
Inhibition 3 ([5]; Receptor M4, 10 μM): -16.19%
Inhibition 4 ([5]; Receptor M4, 10 μM): 18.49%
Mean % [5, 11]: 6.78%
Inhibition 1 ([6]; Receptor DAT, 10 μM): 56.29%
Inhibition 2 ([6]; Receptor DAT, 10 μM): 47.54%
Inhibition 3 ([6]; Receptor DAT, 10 μM): 58.45%
Inhibition 4 ([6]; Receptor DAT, 10 μM): 64.82%
Mean % [6, 12]: 56.78%

O=C(NC1CC1)C(=O)C(Cc1ccccc1)NC(=O)[C@H]1CCC(=O)N1Cc1ccccc1 (stereo partly drawn) [UNC10302676A, ABT-957 (Alicapistat)]
Mean % ([1]; 5-HT3, mean inhibition): -3.28%
Inhibition 1 ([1]; 5-HT3, replicate 1): -2.95%
Inhibition 2 ([1]; 5-HT3, replicate 2): -3.65%
Inhibition 3 ([1]; 5-HT3, replicate 3): -8.86%
Inhibition 4 ([1]; 5-HT3, replicate 4): 2.33%
Mean % ([2]; 5-HT2C, mean inhibition): -3.07%
Inhibition 1 ([2]; 5-HT2C, replicate 1): 14.23%
Inhibition 2 ([2]; 5-HT2C, replicate 2): -14.23%
Inhibition 3 ([2]; 5-HT2C, replicate 3): -2.94%
Inhibition 4 ([2]; 5-HT2C, replicate 4): -9.33%
Mean % ([3]; Alpha1D, mean inhibition): -2.1%
Inhibition 1 ([3]; Alpha1D, replicate 1): 4.8%
Inhibition 2 ([3]; Alpha1D, replicate 2): -9.7%
Inhibition 3 ([3]; Alpha1D, replicate 3): -4.72%
Inhibition 4 ([3]; Alpha1D, replicate 4): 1.24%
Mean % ([4]; SERT, mean inhibition): -3.96% and -1.74%
Inhibition 1 ([4]; SERT, replicate 1): 1.77% and -7.1%
Inhibition 2 ([4]; SERT, replicate 2): -9.07% and 1.55%
Inhibition 3 ([4]; SERT, replicate 3): -5.87% and 7.1%
Inhibition 4 ([4]; SERT, replicate 4): -2.67% and -8.51%
Mean % ([5]; M4, mean inhibition): -0.92%
Inhibition 1 ([5]; M4, replicate 1): -9.99%
Inhibition 2 ([5]; M4, replicate 2): -2.41%
Inhibition 3 ([5]; M4, replicate 3): -11.37%
Inhibition 4 ([5]; M4, replicate 4): 20.1%
Mean % ([6]; DAT, mean inhibition): 30.14%
Inhibition 1 ([6]; DAT, replicate 1): 25.06%
Inhibition 2 ([6]; DAT, replicate 2): 27.22%
Inhibition 3 ([6]; DAT, replicate 3): 40.62%
Inhibition 4 ([6]; DAT, replicate 4): 27.66%

c1cn2cc(-c3ccc4cn[nH]c4c3)nc(Nc3ccc(N4CCOCC4)cc3)c2n1 [UNC10302678A, Entospletinib (GS-9973)]
Inhibition 1 ([1]; Receptor 5-HT3, 10 μM): 20.59%
Inhibition 2 ([1]; Receptor 5-HT3, 10 μM): 12.98%
Inhibition 3 ([1]; Receptor 5-HT3, 10 μM): 21.06%
Inhibition 4 ([1]; Receptor 5-HT3, 10 μM): 14.69%
Mean % [1, 7]: 17.33%
Inhibition 1 ([2]; Receptor 5-HT2C, 10 μM): -15.71%
Inhibition 2 ([2]; Receptor 5-HT2C, 10 μM): 5.4%
Inhibition 3 ([2]; Receptor 5-HT2C, 10 μM): -17.18%
Inhibition 4 ([2]; Receptor 5-HT2C, 10 μM): -19.14%
Mean % [2, 8]: -11.66%
Inhibition 1 ([3]; Receptor Alpha1D, 10 μM): -9.56%
Inhibition 2 ([3]; Receptor Alpha1D, 10 μM): -12.54%
Inhibition 3 ([3]; Receptor Alpha1D, 10 μM): -12.26%
Inhibition 4 ([3]; Receptor Alpha1D, 10 μM): -10.27%
Mean % [3, 9]: -11.16%
Inhibition 1 ([4]; Receptor SERT, 10 μM): 60.12%
Inhibition 2 ([4]; Receptor SERT, 10 μM): 23.39% and 14.88%
Inhibition 3 ([4]; Receptor SERT, 10 μM): 22.83% and 32.36%
Inhibition 4 ([4]; Receptor SERT, 10 μM): 31.59% and 27.97%
Mean % [4, 10]: 34.48% and 22.48%
Inhibition 1 ([5]; Receptor M4, 10 μM): 35.72%
Inhibition 2 ([5]; Receptor M4, 10 μM): 0.8%
Inhibition 3 ([5]; Receptor M4, 10 μM): 6.09%
Inhibition 4 ([5]; Receptor M4, 10 μM): 23.54%
Mean % [5, 11]: 16.54%
Inhibition 1 ([6]; Receptor DAT, 10 μM): 27.87%
Inhibition 2 ([6]; Receptor DAT, 10 μM): 18.37%
Inhibition 3 ([6]; Receptor DAT, 10 μM): 25.5%
Inhibition 4 ([6]; Receptor DAT, 10 μM): 31.55%
Mean % [6, 12]: 25.82%

Source: paper PMC9005681, “Use of AD Informer Set compounds to explore validity of novel targets in Alzheimer's disease pathology” (Alzheimer's & Dementia : Translational Research & Clinical …, 2022)
